Read-outs that look alike come from different tables or passages of the source.
Experiments:
[1] = test system: lens induced myopia in chick; details: negative lens, ref Schmid et al., 2004; cited from earlier work
[2] = target: human ρ1 GABAC receptors (Homo sapiens, UniProt P24046); assay type: cell-based; details: for Mode of antagonism at ρ1 GABAC receptors: GABA dose response curve in presence of 40 μM cis or 30 μM trans; for Effect when applied alone at ρ1 GABAC receptors: applied alone (cis 40 μM, trans 30 μM)
[3] = test system: lens induced myopia in chick; experiment: Lens induced myopia; assay type: in vivo; details: for Axial expansion (interocular difference) / Myopia (refractive error, interocular difference): 350 nmol intravitreal daily, −15 D lens, 4.5 days, mean ± SD; for Axial expansion reduction / Myopia reduction: 350 nmol intravitreal, versus water injected control
[4] = test system: human GABAB(1b,2) receptors; experiment: Two-electrode voltage clamp on recombinant GABAB; assay type: cell-based; details: for Percentage inhibition of GABA response at GABAB(1b,2): compound 1 mM against an EC50 concentration of GABA (3 μM), GIRK1 and GIRK4, n=3; for Response when applied alone (agonist effect) at GABAB(1b,2): compound 1 mM alone
[5] = test system: male Wistar rats; experiment: Morris Water Maze learning and memory in rats; assay type: in vivo, rat; details: for Behavior in pool, D1 / Behavior in pool, D2: grade 0-8; for Number to reach platform, D1 / Number to reach platform, D2: n=10
[6] = test system: male QS mice; experiment: General behavioral and acute toxicity tests in mice; assay type: in vivo; details: 1, 10 and 100 mg/kg ip; 0 min to 1 week after injection
[7] = target: human ρ2 GABAC receptors (Homo sapiens, UniProt P28476); assay type: cell-based
[8] = test system: human α1β2γ2L GABAA receptors; experiment: Two-electrode voltage clamp on recombinant GABAA; assay type: cell-based; details: for Percentage inhibition of GABA response at GABAA(α1β2γ2L): compound 1 mM against an EC50 concentration of GABA (60 μM), n=3; for Response when applied alone (agonist effect) at GABAA(α1β2γ2L): compound 1 mM alone
[9] = test system: ρ1 GABAC receptors; details: ref Chebib et al., 2007, cited from earlier work; for Potency at GABAC relative to GABAA receptors / Potency at GABAC relative to GABAB receptors: ρ1 GABAC
[10] = test system: native GABAC receptor on rat retinal bipolar cells; experiment: Whole-cell patch-clamp on dissociated rat retinal bipolar cells; assay type: cell-based; details: GABA 10 μM, bicuculline 100 μM
[11] = compound 30 μM co-applied with GABA (1 μM)
[12] = 10 mg/kg ip on D1, Trial 1, Day 1
[13] = 10 mg/kg ip on D1, Trial 1, Day 2
[14] = 30 mg/kg ip on D1, Trial 1, Day 1
[15] = 30 mg/kg ip on D1, Trial 1, Day 2
[16] = 100 mg/kg ip on D1, Trial 1, Day 1
[17] = 100 mg/kg ip on D1, Trial 1, Day 2

Chain of human ρ1 GABAC receptors (P24046 22-479): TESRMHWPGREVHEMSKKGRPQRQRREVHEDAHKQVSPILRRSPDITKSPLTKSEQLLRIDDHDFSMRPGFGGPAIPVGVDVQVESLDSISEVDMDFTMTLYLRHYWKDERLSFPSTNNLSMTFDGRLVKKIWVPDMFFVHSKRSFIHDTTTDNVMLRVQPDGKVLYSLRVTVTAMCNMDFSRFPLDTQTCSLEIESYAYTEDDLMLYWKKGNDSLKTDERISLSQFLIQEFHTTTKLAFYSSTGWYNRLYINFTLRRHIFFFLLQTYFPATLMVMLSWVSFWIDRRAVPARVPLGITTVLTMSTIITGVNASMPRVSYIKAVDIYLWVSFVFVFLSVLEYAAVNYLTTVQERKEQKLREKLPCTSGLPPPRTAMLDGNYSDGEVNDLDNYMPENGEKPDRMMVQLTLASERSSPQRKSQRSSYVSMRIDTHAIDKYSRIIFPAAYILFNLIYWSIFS
Chain of human ρ2 GABAC receptors (P28476 21-465): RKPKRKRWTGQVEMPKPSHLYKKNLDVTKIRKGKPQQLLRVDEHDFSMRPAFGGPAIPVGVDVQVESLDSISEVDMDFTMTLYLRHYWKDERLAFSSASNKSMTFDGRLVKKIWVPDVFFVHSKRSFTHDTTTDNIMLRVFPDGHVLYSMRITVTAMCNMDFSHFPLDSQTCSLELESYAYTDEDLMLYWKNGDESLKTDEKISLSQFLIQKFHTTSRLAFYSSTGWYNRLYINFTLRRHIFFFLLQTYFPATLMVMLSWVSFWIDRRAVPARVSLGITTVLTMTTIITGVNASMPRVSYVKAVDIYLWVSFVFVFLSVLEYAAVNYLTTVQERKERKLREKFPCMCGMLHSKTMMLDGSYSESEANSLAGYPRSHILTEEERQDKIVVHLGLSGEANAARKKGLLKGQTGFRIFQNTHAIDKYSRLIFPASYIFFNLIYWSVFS

CP(=O)(O)C1=CCNCC1 [TPMPA, (1,2,5,6-tetrahydropyridin-4-yl)methylphosphinic acid, reference compound]
Dose inhibiting a similar degree of lens-induced myopia [1]: 70 nmol
Inhibition of the GABA response at ρ1 GABAC receptors [2, 11]: completely inhibited

CCCCP(=O)(O)C1CCC(N)C1 (stereo not drawn) [trans-3-ACPBPA, trans-(3-aminocyclopentanyl)butylphosphinic acid]
Axial expansion (interocular difference) [3]: 0.15±0.15 mm
Myopia (refractive error, interocular difference) [3]: −3.1±2.8 D
Axial expansion reduction [3]: 74%
Myopia reduction [3]: 74%
Percentage inhibition of GABA response at GABAB(1b,2) [4]: 35±5%
Response when applied alone (agonist effect) at GABAB(1b,2) [4]: No response
IC50 [2]: 72.6 µM
Mode of antagonism at ρ1 GABAC receptors [2]: competitive antagonists
Effect when applied alone at ρ1 GABAC receptors [2]: no effect alone
Inhibition of the GABA response at ρ1 GABAC receptors [2, 11]: 70%
Median time to reach platform, D1 [5, 12]: 77 s
Behavior in pool, D1 [5, 12]: 3
Number to reach platform, D1 [5, 12]: 5
Median time to reach platform, D2 [5, 13]: 44 s
Behavior in pool, D2 [5, 13]: 4
Number to reach platform, D2 [5, 13]: 8
Median time to reach platform, D1 [5, 14]: 82 s
Behavior in pool, D1 [5, 14]: 3
Number to reach platform, D1 [5, 14]: 5
Median time to reach platform, D2 [5, 15]: 47 s
Behavior in pool, D2 [5, 15]: 5
Number to reach platform, D2 [5, 15]: 8
Median time to reach platform, D1 [5, 16]: 61 s
Behavior in pool, D1 [5, 16]: 4
Number to reach platform, D1 [5, 16]: 6
Median time to reach platform, D2 [5, 17]: 28 s
Behavior in pool, D2 [5, 17]: 6
Number to reach platform, D2 [5, 17]: 9
Overt acute toxicity [6]: No overt acute toxicity
IC50 [7]: 190 µM
Percentage inhibition of GABA response at GABAA(α1β2γ2L) [8]: 28±5%
Response when applied alone (agonist effect) at GABAA(α1β2γ2L) [8]: no response alone

trans-(3-aminocyclopentanyl)methylphosphinic acid [trans-3-ACPMPA]
Mode of antagonism at GABAC receptors [9]: competitive antagonists
Potency at GABAC relative to GABAA receptors [9]: greater than 100 times
Potency at GABAC relative to GABAB receptors [9]: 50 times

CP(=O)(O)[C@H]1CC[C@@H](N)C1 (relative stereo) [cis-3-ACPMPA, cis-(3-aminocyclopentanyl)methylphosphinic acid]
Mode of antagonism at GABAC receptors [9]: competitive antagonists
Potency at GABAC relative to GABAA receptors [9]: greater than 100 times
Potency at GABAC relative to GABAB receptors [9]: 50 times

CCCCP(=O)(O)[C@H]1CC[C@@H](N)C1 (relative stereo) [cis-3-ACPBPA, cis-(3-aminocyclopentanyl)butylphosphinic acid]
Axial expansion (interocular difference) [3]: 0.17±0.17 mm
Myopia (refractive error, interocular difference) [3]: −2.3±2.6 D
Axial expansion reduction [3]: 70%
Myopia reduction [3]: 80%
Dose required to inhibit a similar degree of lens-induced myopia (>80%) ([3]; intravitreal, chick): 35 nmol
Percentage inhibition of GABA response at GABAB(1b,2) [4]: 27±3%
Response when applied alone (agonist effect) at GABAB(1b,2) [4]: No response
Hill coefficient [10]: 0.97
IC50 ([10]; read-out: IC50 at native GABAC receptor, n=6): 47 ± 4.5 µM
Mode of antagonism at ρ1 GABAC receptors [2]: competitive antagonists
Potency at GABAC relative to GABAA or GABAB receptors ([2]; GABAC versus GABAA or GABAB): over 100 times
Effect when applied alone at ρ1 GABAC receptors [2]: no effect alone
Inhibition of the GABA response at ρ1 GABAC receptors ([2]; compound 40 μM co-applied with GABA (1 μM)): completely inhibited
IC50 ([2]; read-out: GABAC ρ1 IC50, GABA 1 μM, n=4): 5.06 µM
Potency relative to the trans analog at the ρ1 and ρ2 GABAC receptors ([2]; ρ1 and ρ2 GABAC receptors): approximately 15 times
Median time to reach platform, D1 [5, 12]: 59 s
Behavior in pool, D1 [5, 12]: 3
Number to reach platform, D1 [5, 12]: 5
Median time to reach platform, D2 [5, 13]: 71 s
Behavior in pool, D2 [5, 13]: 4
Number to reach platform, D2 [5, 13]: 8
Median time to reach platform, D1 [5, 14]: 31 s
Behavior in pool, D1 [5, 14]: 4 ^*, 4
Number to reach platform, D1 [5, 14]: 7
Median time to reach platform, D2 [5, 15]: 35 s
Behavior in pool, D2 [5, 15]: 4 ^*, 4
Number to reach platform, D2 [5, 15]: 9
Median time to reach platform, D1 [5, 16]: 85 s
Behavior in pool, D1 [5, 16]: 3
Number to reach platform, D1 [5, 16]: 5
Median time to reach platform, D2 [5, 17]: 71 s
Behavior in pool, D2 [5, 17]: 4
Number to reach platform, D2 [5, 17]: 6
Overt acute toxicity [6]: No overt acute toxicity
IC50 ([7]; read-out: GABAC ρ2 IC50, GABA 1 μM, n=4): 11.1 µM
Percentage inhibition of GABA response at GABAA(α1β2γ2L) [8]: 33±3%
Response when applied alone (agonist effect) at GABAA(α1β2γ2L) [8]: no response alone

CN1[C@@H]2C[C@@H](OC(=O)[C@H](CO)c3ccccc3)C[C@H]1[C@@H]1O[C@@H]12 [scopolamine, reference compound]
Time taken to find the platform ([5]; 1 mg/kg ip, D1, versus vehicle): statistically significant increase
Behavior score ([5]; 1 mg/kg ip, Trials 3 and 4 of D1, vehicle 6): 3

CCCCP(=O)(O)CCCN [CGP36742, (3-aminopropyl)-n-butylphosphinic acid]
Dose inhibiting a similar degree of lens-induced myopia [1]: 280 nmol

— publication PMC2630368 (The Journal of pharmacology and experimental therapeutics, 2008)
